Test results taken from ChEMBL document CHEMBL1817638, “Ligand polarizability contributes to tau fibril binding affinity” (Bioorg Med Chem, 2011).
Activity calls are given as the source filed them. The calls are words filed in the database; no cut-off is given here.

Tests used:
[1] = Displacement of Thioflavin S from synthetic Tau 2N4R aggregate by fluorescence assay at 10 uM probe concentration
[2] = Displacement of Thioflavin T from synthetic Tau 2N4R aggregate by fluorescence assay at 1 uM probe concentration
[3] = Displacement of Thioflavin S from arachidonic acid-induced synthetic Tau 2N4R aggregate by fluorescence assay
[4] = Displacement of Thioflavin S from Octadecyl sulfate-induced synthetic Tau 2N4R aggregate by fluorescence assay
[5] = Displacement of Thioflavin S from heparin-induced synthetic Tau 2N4R aggregate by fluorescence assay
[6] = molecular target: Microtubule-associated protein tau (Homo sapiens) (UniProt P10636); experiment: Displacement of Thioflavin T from Octadecyl sulfate-induced synthetic Tau 0N4R aggregate at 17 pm to 10 uM by fluorescence assay at increasing probe concentration
[7] = molecular target: Microtubule-associated protein tau (Homo sapiens) (UniProt P10636); experiment: Displacement of Thioflavin T from Octadecyl sulfate-induced synthetic Tau 0N4R aggregate at 17 pm to 10 uM by fluorescence assay at 0.1 uM probe concentration
[8] = molecular target: Microtubule-associated protein tau (Homo sapiens) (UniProt P10636); experiment: Displacement of Thioflavin S from recombinant human PHF-tau expressed in Escherichia coli by fluorescence assay
[9] = Displacement of Thioflavin S from synthetic Tau 2N4R aggregate by fluorescence assay

Microtubule-associated protein tau (Homo sapiens), sequence (P10636 whole entry): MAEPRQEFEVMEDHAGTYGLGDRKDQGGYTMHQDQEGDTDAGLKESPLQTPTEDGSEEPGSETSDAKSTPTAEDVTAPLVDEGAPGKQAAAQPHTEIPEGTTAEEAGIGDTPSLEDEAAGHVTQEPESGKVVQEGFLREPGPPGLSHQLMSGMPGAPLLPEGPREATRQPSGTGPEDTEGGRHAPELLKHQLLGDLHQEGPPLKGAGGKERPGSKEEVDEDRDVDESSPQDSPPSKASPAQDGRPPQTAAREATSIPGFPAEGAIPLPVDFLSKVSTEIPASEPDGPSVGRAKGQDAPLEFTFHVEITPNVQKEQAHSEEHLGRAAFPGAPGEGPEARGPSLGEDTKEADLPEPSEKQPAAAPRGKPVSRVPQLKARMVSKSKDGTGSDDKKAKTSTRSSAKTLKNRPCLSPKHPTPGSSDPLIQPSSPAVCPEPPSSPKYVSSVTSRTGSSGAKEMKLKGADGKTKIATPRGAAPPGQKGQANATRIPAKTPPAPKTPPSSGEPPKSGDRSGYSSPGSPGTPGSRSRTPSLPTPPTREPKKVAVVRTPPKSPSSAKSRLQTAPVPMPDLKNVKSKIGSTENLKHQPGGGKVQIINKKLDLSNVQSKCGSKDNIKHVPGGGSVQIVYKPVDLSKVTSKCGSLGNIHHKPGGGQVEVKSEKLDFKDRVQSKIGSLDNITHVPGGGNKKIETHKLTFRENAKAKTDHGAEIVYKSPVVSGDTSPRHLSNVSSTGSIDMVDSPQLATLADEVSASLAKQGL

| Structure (SMILES) | Activity [1] | Activity [2] | Activity [3] | Activity [4] | Activity [5] | other results |
| --- | --- | --- | --- | --- | --- | --- |
| CN(C)c1ccc2nc3ccc(N)cc3[s+]c2c1 | inactive | Active |  |  |  |  |
| N=C1C=CC(=C(c2ccc(N)cc2)c2ccc(N)cc2)C=C1 | Active | Active |  |  |  |  |
| O=C1C=CC(=C(c2ccc(O)cc2)c2ccc(O)cc2)C=C1 | Active | Active |  |  |  |  |
| Nc1ccc2nc3ccc(N)cc3[s+]c2c1 | inactive | Active |  |  |  |  |
| C/N=c1\ccc2nc3ccc(N)cc3sc-2c1 | inactive | Active | Active | Active | Active |  |
| CN(C)c1ccc(C(=C2C=CC(=[N+](C)C)C=C2)c2ccccc2)cc1 | Active | Active |  |  |  |  |
| COc1ccc2nc(/N=N/c3ccc(N(C)C)cc3)sc2c1 |  |  | Active | Active | Active |  |
| CNc1ccc2nc3ccc(N(C)C)cc3[s+]c2c1 | inactive | Active |  |  |  |  |
| CN(C)c1ccc(-c2nc3ccccc3s2)cc1 |  |  |  |  |  | Activity [6]: inactive; Activity [7]: Active |
| CN(C)c1ccc2nc3ccc(=[N+](C)C)cc-3sc2c1 | inactive | Active | Active | Active | Active |  |
| CN(C)c1ccc(C(=C2C=CC(=[N+](C)C)C=C2)c2ccc(N(C)C)cc2)cc1 | Active | Active |  |  |  |  |
| CN(C)c1ccc(/C=C2/C(=O)Nc3ccccc32)cc1 |  |  |  |  |  | Activity [6]: Active; Activity [7]: Active |
| CN(C)c1ccc(/C=C2\C(=O)Nc3ccc(I)cc32)cc1 |  |  | Active | Active | Active | Activity [8]: Active; Activity [9]: Active |
| Cc1cc2nc3ccc(N(C)C)cc3[s+]c2cc1N | inactive | Active |  |  |  |  |
| O=C(O)c1cc(/N=N/c2ccc(-c3ccc(/N=N/c4ccc(O)c(C(=O)O)c4)cc3)cc2)ccc1O |  |  | Active | Active | Active |  |
